Test results: PubChem BioAssay AID330 (DTP/NCI, 2004)
Where “and” joins values, the source holds several entries; their conditions need not be identical. Identical values can stand only once. Inconclusive results and toxic doses are left out.

Test system: P388 leukemia ip, CD2F1 mice, survival T/C
Test: NCI In Vivo Anticancer Drug Screen. Data for tumor model P388 Leukemia (intraperitoneal) in CD2F1 (CDF1) mice
Settings: endpoint: median survival time, higher = longer survival
Procedure, shortened: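 Mice carrying the transplanted tumor received test compound or vehicle. Survival was recorded in each group, and the value is the treated-group measurement divided by that of the vehicle-treated control group.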

[1] = dose: 12.5 mg/kg/injection, schedule: Q01DX009 (ip), vehicle: saline
[2] = dose: 50.0 mg/kg/injection, schedule: Q01DX009 (ip), vehicle: saline with Tween-80
[3] = dose: 100.0 mg/kg/injection, schedule: Q01DX009 (ip), vehicle: saline with Tween-80
[4] = dose: 200.0 mg/kg/injection, schedule: Q01DX009 (ip), vehicle: saline with Tween-80
[5] = dose: 25.0 mg/kg/injection, schedule: Q01DX005 (ip), vehicle: Klucel (hydroxypropylcellulose) (HPC)
[6] = dose: 100.0 mg/kg/injection, schedule: Q01DX005 (ip), vehicle: saline with Tween-80
[7] = dose: 200.0 mg/kg/injection, schedule: Q01DX005 (ip), vehicle: saline with Tween-80
[8] = dose: 50.0 mg/kg/injection, schedule: Q01DX005 (ip), vehicle: Klucel (hydroxypropylcellulose) (HPC)
[9] = dose: 100.0 mg/kg/injection, schedule: Q01DX005 (ip), vehicle: Klucel (hydroxypropylcellulose) (HPC)

CC1(C)N=C(N)N=C(N)N1c1cccc(CSc2ccccc2)c1
T/C (dose: 7.5 mg/kg/injection, schedule: Q01DX005 (ip), vehicle: Klucel (hydroxypropylcellulose) (HPC)): 98 % of control
T/C (dose: 15.0 mg/kg/injection, schedule: Q01DX005 (ip), vehicle: Klucel (hydroxypropylcellulose) (HPC)): 103 % of control
T/C (dose: 30.0 mg/kg/injection, schedule: Q01DX005 (ip), vehicle: Klucel (hydroxypropylcellulose) (HPC)): 103 % of control

Cc1ccc2cccc(OC(=O)Nc3cccc(C(F)(F)F)c3)c2n1
T/C (dose: 60.0 mg/kg/injection, schedule: Q01DX005 (ip), vehicle: Klucel (hydroxypropylcellulose) (HPC)): 101 % of control
T/C (dose: 120.0 mg/kg/injection, schedule: Q01DX005 (ip), vehicle: Klucel (hydroxypropylcellulose) (HPC)): 107 % of control
T/C (dose: 240.0 mg/kg/injection, schedule: Q01DX005 (ip), vehicle: Klucel (hydroxypropylcellulose) (HPC)): 105 % of control

O=C(O)C(=O)O.O=C(O)C(=O)O.OO.OO.[Nb]
T/C [1]: 98 % of control

COC1OC(COC(=O)c2ccccc2)C=C(OC(=O)c2ccccc2)C1=O (configuration not stated)
T/C (dose: 6.25 mg/kg/injection, schedule: Q01DX009 (ip), vehicle: saline with Tween-80): 103 % of control
T/C (dose: 12.5 mg/kg/injection, schedule: Q01DX009 (ip), vehicle: saline with Tween-80): 105 % of control
T/C (dose: 25.0 mg/kg/injection, schedule: Q01DX009 (ip), vehicle: saline with Tween-80): 103 % of control
T/C [2]: 102 % of control and 113 % of control and 114 % of control
T/C [3]: 105 % of control and 92 % of control
T/C [4]: 114 % of control and 96 % of control

CCOC(=O)C1=C(C)NC(=O)NC1c1ccccc1 (configuration not stated)
T/C (dose: 50.0 mg/kg/injection, schedule: Q01DX009 (ip), vehicle: Klucel (hydroxypropylcellulose) (HPC)): 100 % of control
T/C (dose: 100.0 mg/kg/injection, schedule: Q01DX009 (ip), vehicle: Klucel (hydroxypropylcellulose) (HPC)): 107 % of control
T/C (dose: 200.0 mg/kg/injection, schedule: Q01DX009 (ip), vehicle: Klucel (hydroxypropylcellulose) (HPC)): 113 % of control
T/C (dose: 400.0 mg/kg/injection, schedule: Q01DX009 (ip), vehicle: Klucel (hydroxypropylcellulose) (HPC)): 109 % of control

C=CCOc1cc2c(cc1C(C)c1ccc(OC)cc1)OCO2 (configuration not stated)
T/C [5]: 104 % of control and 116 % of control
T/C [6]: 100 % of control and 109 % of control
T/C (dose: 200.0 mg/kg/injection, schedule: Q01DX005 (ip), vehicle: Klucel + Tween-80): 202 % of control
T/C [7]: 106 % of control and 112 % of control
T/C (dose: 500.0 mg/kg/injection, schedule: Q01DX001 (ip), vehicle: saline with Tween-80): 96 % of control
T/C (dose: 800.0 mg/kg/injection, schedule: Q01DX005 (ip), vehicle: saline with Tween-80): 184 % of control
T/C (dose: 1000.0 mg/kg/injection, schedule: Q01DX001 (ip), vehicle: saline with Tween-80): 122 % of control

CC(=O)Oc1cccc(C#N)c1
T/C (dose: 100.0 mg/kg/injection, schedule: Q04DX003 (ip), vehicle: saline with Tween-80): 100 % of control
T/C (dose: 200.0 mg/kg/injection, schedule: Q04DX003 (ip), vehicle: saline with Tween-80): 100 % of control
T/C (dose: 400.0 mg/kg/injection, schedule: Q04DX003 (ip), vehicle: saline with Tween-80): 104 % of control

CC(=O)OCC1OC(n2nnc(CCl)c2CCl)C(OC(C)=O)C(OC(C)=O)C1OC(C)=O (configuration not stated)
T/C [2]: 110 % of control
T/C [3]: 98 % of control
T/C [4]: 117 % of control

C=CC(=NC(C)(C)C)Nc1ccccc1C(=O)OC
T/C [1]: 108 % of control
T/C (dose: 25.0 mg/kg/injection, schedule: Q01DX009 (ip), vehicle: saline): 107 % of control
T/C [2]: 101 % of control
T/C (dose: 50.0 mg/kg/injection, schedule: Q01DX009 (ip), vehicle: saline): 108 % of control

CNC(=S)N/N=C1/CCOC(C)/C1=N\NC(=S)NC (configuration not stated)
T/C (dose: 50.0 mg/kg/injection, schedule: Q01DX005 (ip), vehicle: saline with Tween-80): 93 % of control
T/C [6]: 95 % of control
T/C [7]: 92 % of control

C=C1C2CC[C@H]3C4(C)CCCC(C)(C(=O)O)[C@H]4CCC3(C2)[C@@H]1OC(C)=O (some centres not stated)
T/C (dose: 3.5 mg/kg/injection, schedule: Q01DX005 (ip), vehicle: Klucel (hydroxypropylcellulose) (HPC)): 108 % of control
T/C (dose: 7.0 mg/kg/injection, schedule: Q01DX005 (ip), vehicle: Klucel (hydroxypropylcellulose) (HPC)): 97 % of control
T/C (dose: 14.0 mg/kg/injection, schedule: Q01DX005 (ip), vehicle: Klucel (hydroxypropylcellulose) (HPC)): 100 % of control
T/C [5]: 88 % of control
T/C (dose: 28.0 mg/kg/injection, schedule: Q01DX005 (ip), vehicle: Klucel (hydroxypropylcellulose) (HPC)): 94 % of control
T/C [8]: 90 % of control
T/C [9]: 90 % of control

Cc1cccc(C)c1OC(=S)SSC(=S)Oc1c(C)cccc1C
T/C (dose: 100.0 mg/kg/injection, schedule: Q01DX001 (ip), vehicle: Klucel (hydroxypropylcellulose) (HPC)): 94 % of control
T/C (dose: 200.0 mg/kg/injection, schedule: Q01DX001 (ip), vehicle: Klucel (hydroxypropylcellulose) (HPC)): 87 % of control

COC(=O)c1ccc(SCCC(C)=O)cc1
T/C [2]: 99 % of control
T/C [3]: 106 % of control
T/C [4]: 101 % of control

CC(=O)c1ccc2c(c1)NC(=O)CC(C)N2 (configuration not stated)
T/C [8]: 99 % of control
T/C [9]: 99 % of control
T/C (dose: 200.0 mg/kg/injection, schedule: Q01DX005 (ip), vehicle: Klucel (hydroxypropylcellulose) (HPC)): 103 % of control

COC(=O)Cn1ccnc1[N+](=O)[O-]
T/C (dose: 12.5 mg/kg/injection, schedule: Q01DX009 (ip), vehicle: distilled water + Tween-80): 100 % of control
T/C (dose: 25.0 mg/kg/injection, schedule: Q01DX009 (ip), vehicle: distilled water + Tween-80): 93 % of control
T/C (dose: 50.0 mg/kg/injection, schedule: Q01DX009 (ip), vehicle: distilled water + Tween-80): 93 % of control
T/C (dose: 100.0 mg/kg/injection, schedule: Q01DX009 (ip), vehicle: distilled water + Tween-80): 93 % of control
T/C (dose: 200.0 mg/kg/injection, schedule: Q01DX009 (ip), vehicle: distilled water + Tween-80): 90 % of control

COc1ccccc1/C(=N/[N+](C)(C)C)C(C)C
T/C (dose: 6.25 mg/kg/injection, schedule: Q04DX002 (ip), vehicle: saline): 100 % of control
T/C (dose: 12.5 mg/kg/injection, schedule: Q04DX002 (ip), vehicle: saline): 100 % of control
T/C (dose: 25.0 mg/kg/injection, schedule: Q04DX002 (ip), vehicle: saline): 93 % of control

COc1nc2[nH]c(C)cc(=O)c2c2ccccc12
T/C (dose: 60.0 mg/kg/injection, schedule: Q01DX005 (ip), vehicle: saline with Tween-80): 98 % of control
T/C (dose: 120.0 mg/kg/injection, schedule: Q01DX005 (ip), vehicle: saline with Tween-80): 98 % of control

CCC1(c2ccc(-c3ccccc3)cc2)OC(OC(=O)NC)C=CC1=O (configuration not stated)
T/C (dose: 6.25 mg/kg/injection, schedule: Q01DX009 (ip), vehicle: Klucel (hydroxypropylcellulose) (HPC)): 98 % of control

Cc1ccc(N=CN(C)C=Nc2ccc(C)cc2C)c(C)c1
T/C (dose: 50.0 mg/kg/injection, schedule: Q01DX009 (ip), vehicle: suspension in saline): 104 % of control
T/C (dose: 100.0 mg/kg/injection, schedule: Q01DX009 (ip), vehicle: suspension in saline): 113 % of control
T/C (dose: 200.0 mg/kg/injection, schedule: Q01DX009 (ip), vehicle: suspension in saline): 107 % of control

O=C(NC(=O)Nc1ccc(Cl)cc1)NC(=O)c1ccccc1F
T/C [2]: 114 % of control
T/C [3]: 101 % of control
T/C [4]: 95 % of control

CN(C)CCN(C=O)CCN(C)C
T/C (dose: 50.0 mg/kg/injection, schedule: Q01DX005 (ip), vehicle: saline): 95 % of control
T/C (dose: 100.0 mg/kg/injection, schedule: Q01DX005 (ip), vehicle: saline): 88 % of control
T/C (dose: 200.0 mg/kg/injection, schedule: Q01DX005 (ip), vehicle: saline): 101 % of control
